From patent publication US4985453A, “Parabanic acid derivatives and pharmaceutical compositions thereof” (Nippon Zoki Pharmaceutical Co., Ltd., priority 1988, dated 1991)

tested on: not listed separately; experiment: Acute toxicity test (oral, LD50); details: rat, in vivo, Wistar-strain male rats, groups of 8, death rate of 7 days
Protocol: The test compounds of the present invention were orally administered to groups of 8 Wistar-strain male rats, and the LD50 values were calculated based on the death rate of 7 days.

SMILES	LD50 at 168 h
O=C(O)CN1C(=O)C(=O)N(Cc2ccc(Br)cc2)C1=O [Compound 44, 1-(4-Bromobenzyl)-3-carboxymethylparabanic acid]	> 5000 mg/kg
O=C(O)CN1C(=O)C(=O)N(Cc2cccc([N+](=O)[O-])c2)C1=O [Compound 48, 3-Carboxymethyl-1-(3-nitrobenzyl)parabanic acid]	> 5000 mg/kg
O=C(O)CN1C(=O)C(=O)N(Cc2ccc(Cl)c(Cl)c2)C1=O [Compound 47, 3-Carboxymethyl-1-(3,4-dichlorobenzyl)parabanic acid]	> 2000 mg/kg

molecular target: T1, aldose reductase prepared from rat lenses (Rattus norvegicus, UniProt P07943); experiment: Aldose reductase inhibitory activity; type: biochemical; details: at 5×10^-7 M; glyceraldehyde substrate, NADPH, absorbance at 340 nm; read-out: Inhibitory rate (%) against aldose reductase
T1 construct: aldose reductase prepared from rat lenses; from tissue; host or cells: rat lens
Protocol: Aldose reductase inhibitory activity of the compound of the present invention was evaluated by using aldose reductase prepared from rat lenses. The test compound was added to the reaction mixture consisting of phosphate buffer, NADPH and aldose reductase. After stability of absorbance was confirmed for a few minutes, glyceraldehyde was added to the reaction mixture and then the decrease in absorbance at 340 nm with the passage of time was measured to assay the inhibitory activity of the test compound against aldose reductase.
The inhibitory rate (%) against aldose reductase in the table is the values at 5×10^-7 M of the each test compound.

inhibition at 0.5 µM	SMILES
36%	O=C(O)CN1C(=O)C(=O)N(CCc2cccc([N+](=O)[O-])c2)C1=O [Compound 55, 3-Carboxymethyl-1-(2-(3-nitrophenyl)ethyl)parabanic acid]
31%	O=C(O)CN1C(=O)C(=O)N(Cc2cccc(Cl)c2)C1=O [Compound 42, 3-Carboxymethyl-1-(3-chlorobenzyl)parabanic acid]
57%	O=C(O)CN1C(=O)C(=O)N(CCc2ccc(Cl)c(Cl)c2)C1=O [Compound 54, 3-Carboxymethyl-1-(2-(3,4-dichlorophenyl)ethyl)parabanic acid]
42%	COc1ccc(CCN2C(=O)C(=O)N(CC(=O)O)C2=O)cc1OC [Compound 51, 3-Carboxymethyl-1-(2-(3,4-dimethoxyphenyl)ethyl)parabanic acid]
37%	O=C(O)CN1C(=O)C(=O)N(CCc2ccccc2Cl)C1=O [Compound 52, 3-Carboxymethyl-1-(2-(2-chlorophenyl)ethyl)parabanic acid]
42%	Cc1ccc(CCN2C(=O)C(=O)N(CC(=O)O)C2=O)cc1 [Compound 50, 3-Carboxymethyl-1-(2-(4-methylphenyl)ethyl)parabanic acid]
56%	O=C(O)CN1C(=O)C(=O)N(Cc2ccc(Cl)cc2)C1=O [Compound 43, 3-Carboxymethyl-1-(4-chlorobenzyl)parabanic acid]
30%	Cc1ccc(CN2C(=O)C(=O)N(CC(=O)O)C2=O)cc1 [Compound 37, 3-Carboxymethyl-1-(4-methylbenzyl)parabanic acid]
61%	O=C(O)CN1C(=O)C(=O)N(Cc2ccc(Cl)cc2Cl)C1=O [Compound 46, 3-Carboxymethyl-1-(2,4-dichlorobenzyl)parabanic acid]
47%	O=C(O)CN1C(=O)C(=O)N(CCc2ccc(Br)cc2)C1=O [Compound 53, 1-(2-(4-Bromophenyl)ethyl)-3-carboxymethylparabanic acid]
30%	O=C(O)CN1C(=O)C(=O)N(CCc2ccccc2)C1=O [Compound 49, 3-Carboxymethyl-1-(2-phenylethyl)parabanic acid]
32%	O=C(O)CN1C(=O)C(=O)N(Cc2ccccc2Cl)C1=O [Compound 41, 3-Carboxymethyl-1-(2-chlorobenzyl)parabanic acid]

Second part, the compound before the results:

SMILES	inhibition at 0.5 µM
O=C(O)CN1C(=O)C(=O)N(Cc2ccc(Br)cc2)C1=O [Compound 44, 1-(4-Bromobenzyl)-3-carboxymethylparabanic acid]	65%
O=C(O)CN1C(=O)NC(=O)C1=O [Compound 60, 1-carboxymethylparabanic acid]	31%
CC1CCC(N2C(=O)C(=O)N(CC(=O)O)C2=O)CC1 (stereo not shown) [Compound 34, 3-Carboxymethyl-1-(4-methylcyclohexyl)parabanic acid]	49%
O=C(O)CN1C(=O)C(=O)N(CCCCc2ccccc2)C1=O [Compound 57, 3-Carboxymethyl-1-(4-phenylbutyl)parabanic acid]	25%
CCCCCCN1C(=O)C(=O)N(CC(=O)O)C1=O [Compound 33, 3-Carboxymethyl-1-hexylparabanic acid]	35%
COc1cccc(CN2C(=O)C(=O)N(CC(=O)O)C2=O)c1 [Compound 39, 3-Carboxymethyl-1-(3-methoxybenzyl)parabanic acid]	44%
CCOC(=O)CN1C(=O)C(=O)N(Cc2cccc([N+](=O)[O-])c2)C1=O [Compound 19, Ethyl 1-(3-nitrobenzyl)-2,4,5-trioxoimidazolidine-3-acetate]	31%
O=C(O)CN1C(=O)C(=O)N(Cc2cccc([N+](=O)[O-])c2)C1=O [Compound 48, 3-Carboxymethyl-1-(3-nitrobenzyl)parabanic acid]	75%
O=C(O)CN1C(=O)C(=O)N(Cc2ccc(Cl)c(Cl)c2)C1=O [Compound 47, 3-Carboxymethyl-1-(3,4-dichlorobenzyl)parabanic acid]	75%
Cc1ccccc1CN1C(=O)C(=O)N(CC(=O)O)C1=O [Compound 36, 3-Carboxymethyl-1-(2-methylbenzyl)parabanic acid]	41%
